Source: patent US5630978A, “Preparation of biologically active molecules by molecular imprinting” (Yissum Research Development Co. of The Hebrew University of …, priority 1995, dated 1997)

Test system: extracellular matrix (ECM) bound FGF
Assay: Release of extracellular matrix (ECM) bound FGF
Format: biochemical
Procedure: The polymers were tested according to the method of Vlodavsky [Vlodavsky, I., Bar-Shavit, R., Korner, G., and Foks, Z., Extracellular matrix-bound growth factors, enzymes, and plasma proteins, in Molecular and cellular aspects of basement membrane, Academic Press, 327-343 (1993)]. Release of ECM bound bFGF was low (15%) at the concentration range between 1 and 25 mg/ml for N-acryl-4-hydroxyproline based polymers. Under the same conditions, heparin released about 80% of the ECM bound bFGF at a concentration of 2 to 25 mg/ml.

## heparin
  released extracellular matrix (ECM) bound FGF: 80%
Concentration of 2 to 25 mg/ml
  Release of ECM bound bFGF: about 80%
